# Source: patent US7122523B2, “Methods for inhibiting tumor cell proliferation” (University of Southern California, priority 2001, dated 2006)
# Assays:
# Type in all cases: cell-based
# [1] = tested on: Endometrial adenocarcinoma; assay: Human tumor cell clonigenic assay (tritiated thymidine incorporation); conditions: Sample 23, Endometrial adenocarcinoma; proliferation
# Protocol: (§1) Primary and metastatic tumors obtained from the Department of Obstetrics and Gynecology Pathology Section and the Surgical Pathology Division of Los Angeles County/University of Southern California were minced into pieces less than 2 mm in diameter in the presence of RPMI-1640 (Gibco, Grand Island, NTY) containing 15% heat-inactivated fetal calf serum. Each gram of tumor tissue was treated with 10–20 mL of enzyme medium, consisting of Hanks' balanced salt solution with 0.03% DNAse (500 Kunitz units/mL; Sigma Chemical Co., St. Louis, Mo.) and 0.14% collagenase type I (Sigma). Tumor fragments were stirred for 90 minutes at 37° C. in the presence of 5% CO2. After enzymatic digestion, the free cells were decanted through 40-gauge mesh strainers and centrifuged at 200×g for 10 minutes. The supernatant was removed and viable cells were resuspended in RPMI 1640. The cell number was determined using a hematocytometer and 0.04% trypan blue dye. The cells were then centrifuged and the pellet resuspended in RPMI 1640 at 5×10^5 cells/mL.
# (§2) Human cancer cells were obtained from operative specimens provided by the Division of Gynecologic Oncology, Department of Obstetrics and Gynecology, or the Department of Surgical Pathology of Los Angeles County/University of Southern California School of Medicine. Tumor cells were maintained in vitro in RPMI 1640 medium supplemented with 15% heat-inactivated fetal calf serum, 100 μg/mL streptomycin, fungizone 25 μg/mL, and 100 μ/mL penicillin.
# (§3) Cells were cultured on an underlayer of 0.5% agarose (Bethesda Research Labs, Bethesda, Md.) prepared from a 3% stock of agarose with added penicillin (100 units/mL), streptomycin (100 μg/mL), and fungizone (1.25 μg/mL) (GIBCO) as per a modification of an established procedure. The cloning efficiency of this assay varied depending upon the source of the tissue. One milliliter of this 0.5% agarose mixture was added to each 16×16-mm well of a 24-well plate and the plates were refrigerated for 10 minutes at 4° C. Cells were suspended in 0.6% agarose in RPMI-1640 supplemented with antibiotics and 15% fetal calf serum. One aliquot (0.5 mL) of cell suspension was added to each underlaver at a final concentration of 5×10^4 cells/well, and the plates were refrigerated 10 minutes at 4° C.
# (§4) After a 72-hour incubation at 37° C., 5 μCi of tritiated thymidine (specific activity 18.2 Ci/mmol; New England Nuclear, Boston, Mass.) was layered over each well, and the plates were returned to the incubator for an additional 24 hours, incorporation of thymidine was terminated by transferring the agarose layers to 10-mL glass centrifuge tubes (Kimble, Division of Owens, Ill.) and boiling the tubes for 15 minutes in a water bath. The volume was brought to 8 mL, the tubes were centrifuged, and the pellets were washed with phosphate-buffered saline and then dissolved in 3 mL of 0.85 N KOH for 1 hour at 80° C. The tubes were cooled on ice and the hydrolysates were precipitated by adding 30 μL of 1% human serum albumin (Sigma) and 2.4 mL of ice-cold trichloroacetic acid. After overnight storage at 4° C., precipitates were collected by centrifugation. Pellets were washed with 5% trichloroacetic acid, dissolved in 0.3 mL of 0.075 N KOH, and transferred to scintillation vials to which 5 mL of Liquiscint (National Diagnostics, Somerville, N.J.) were added. Radioactivity per vial was measured in a Nuclear-Chicago liquid scintillation counter.
# [2] = tested on: Invasive, moderately differentiated adenocarcinoma of colon; assay: as above; conditions: Sample 29, Invasive, AII(1–7) 0.1 ng/ml–10 μg/ml
# Protocol: as §1, §2, §3, §4
# Leiomyosarcoma = assay: as above; conditions: Sample 1, Leiomyosarcoma; AII(1–7) 0.1 ng/ml–10 μg/ml
# Protocol: as §1, §2, §3, §4
# [3] = tested on: Metastatic Ovarian Papillary Carcinoma to Omentum; assay: as above; conditions: Sample 13, Metastatic Ovarian Papillary Carcinoma to Omentum; AII(1–7) 0.1 ng/ml–10 μg/ml
# Protocol: as §1, §2, §3, §4
# [4] = tested on: Metastatic colon adenocarcinoma; assay: as above; conditions: Sample 26, Metastatic colon adenocarcinoma; AII(1–7) 0.1 ng/ml–10 μg/ml
# Protocol: as §1, §2, §3, §4
# [5] = tested on: Metastatic uterine carcinosarcoma to the ovary; assay: as above; conditions: Sample 5, Metastatic uterine carcinosarcoma to the ovary; AII(1–7) 0.1 ng/ml–10 μg/ml
# Protocol: as §1, §2, §3, §4
# [6] = tested on: Metastatic, recurrent moderately to poorly differentiated colonic adenocarcinoma; assay: as above; conditions: Sample 34, Metastatic, AII(1–7) 0.1 ng/ml–10 μg/ml
# Protocol: as §1, §2, §3, §4
# [7] = tested on: Ovarian Cancer-High Grade Clear Cell Carcinoma; assay: as above; conditions: Sample 16, Ovarian Cancer-High Grade Clear Cell Carcinoma; AII(1–7) 0.1 ng/ml–10 μg/ml
# Protocol: as §1, §2, §3, §4
# [8] = tested on: Ovarian Serous papillary carcinoma; assay: as above; conditions: Sample 31, Ovarian Serous papillary carcinoma
# Protocol: as §1, §2, §3, §4
# Ovarian adenocarcinoma = assay: as above; conditions: for Effect of AII(1–7) on proliferation: AII(1–7) 0.1 ng/ml–10 μg/ml; for IC50 (ng/ml) of AII(1–7): proliferation
# Protocol: as §1, §2, §3, §4
# [9] = tested on: Ovarian carcinoma-clear cell; assay: as above; conditions: Sample 3, Ovarian carcinoma-clear cell; AII(1–7) 0.1 ng/ml–10 μg/ml
# Protocol: as §1, §2, §3, §4
# [10] = tested on: Ovarian papillary serous carcinoma; assay: as above; conditions: Sample 2, Ovarian papillary serous carcinoma
# Protocol: as §1, §2, §3, §4
# [11] = tested on: Recurrent moderately differentiated colonic adenocarcinoma; assay: as above; conditions: Sample 19, Recurrent moderately differentiated colonic adenocarcinoma; AII(1–7) 0.1 ng/ml–10 μg/ml
# Protocol: as §1, §2, §3, §4
# [12] = tested on: Serous tumor of low malignant potential; assay: as above; conditions: Sample 6, Serous tumor of low malignant potential; AII(1–7) 0.1 ng/ml–10 μg/ml
# Protocol: as §1, §2, §3, §4
# [13] = tested on: Squamous Cell Carcinoma of the Cervix, gr 3; assay: as above; conditions: Sample 12, Squamous Cell Carcinoma of the Cervix, AII(1–7) 0.1 ng/ml–10 μg/ml
# Protocol: as §1, §2, §3, §4
# Uterine Carcinosarcoma = assay: as above; conditions: Sample 17, Uterine Carcinosarcoma; AII(1–7) 0.1 ng/ml–10 μg/ml
# Protocol: as §1, §2, §3, §4
# [14] = tested on: Human Primary Tumor Cells; assay: Clonigenic assay, Chi Square analysis of tumor-type specificity over all samples
# Protocol: as §1, §2, §3, §4
# [15] = Sample 27, Ovarian adenocarcinoma
# [16] = Sample 32, Ovarian adenocarcinoma
structure (smiles),measurement,setting,value
"CC[C@H](C)[C@H](NC(=O)[C@H](Cc1ccc(O)cc1)NC(=O)[C@@H](NC(=O)[C@H](CCCNC(=N)N)NC(=O)[C@@H](N)CC(=O)O)C(C)C)C(=O)N[C@@H](Cc1c[nH]cn1)C(=O)N1CCC[C@H]1C(=O)O [AII(1–7), Asp-Arg-Val-Tyr-Ile-His-Pro]",IC50 (ng/ml) of AII(1–7),[1],4.0 ng/mL
same,Effect of AII(1–7) on proliferation,[2],No Effect
same,Effect of AII(1–7) on proliferation,Leiomyosarcoma,No Effect
same,Effect of AII(1–7) on proliferation,[3],No Effect
same,Effect of AII(1–7) on proliferation,[4],Variable
same,Effect of AII(1–7) on proliferation,[5],Equivocal
same,Effect of AII(1–7) on proliferation,[6],No Effect
same,Effect of AII(1–7) on proliferation,[7],No Effect
same,Effect of AII(1–7) on proliferation,[8]; AII(1–7) 0.1 ng/ml–10 μg/ml,Decreased
same,IC50 (ng/ml) of AII(1–7),[8]; proliferation,2.34 ng/mL
same,Effect of AII(1–7) on proliferation,Ovarian adenocarcinoma; [15],Decreased
same,IC50 (ng/ml) of AII(1–7),Ovarian adenocarcinoma; [15],3.6 ng/mL
same,Effect of AII(1–7) on proliferation,Ovarian adenocarcinoma; [16],Decreased
same,IC50 (ng/ml) of AII(1–7),Ovarian adenocarcinoma; [16],3.4 ng/mL
same,Effect of AII(1–7) on proliferation,"Ovarian adenocarcinoma; Sample 33, Ovarian adenocarcinoma",No Effect
same,Effect of AII(1–7) on proliferation,[9],No Effect
same,Effect of AII(1–7) on proliferation,[10]; AII(1–7) 0.1 ng/ml–10 μg/ml,Decreased
same,IC50 (ng/ml) of AII(1–7),[10]; proliferation,3.0 ng/mL
same,Effect of AII(1–7) on proliferation,[11],No Effect
same,Effect of AII(1–7) on proliferation,[12],No Effect
same,Effect of AII(1–7) on proliferation,[13],No Effect
same,Effect of AII(1–7) on proliferation,Uterine Carcinosarcoma,No Effect
same,tumors affected (proliferation decreased),"[14]; All adenocarcinoma: 14 decreased, 8 not affected",63.6%
same,tumors affected (proliferation decreased),"[14]; Breast infiltrating ductal adenocarcinoma: 4 decreased, 2 not affected",66.7%
same,tumors affected (proliferation decreased),"[14]; Uterine adenocarcinoma and breast infiltrating ductal adenocarcinoma: 9 decreased, 4 not affected",69.2%
same,tumors affected (proliferation decreased),"[14]; Uterine adenocarcinoma: 5 decreased, 2 not affected",71.4%
same,tumors with decreased proliferation,"[14]; Uterine, ovarian and breast adenocarcinomas: 11 decreased, 5 not affected",68.8%
same,tumors affected (proliferation decreased),"[14]; remaining tumors not adenocarcinoma: 2 decreased, 10 not affected",16.7%
same,tumors affected (proliferation decreased),"[14]; remaining tumors not of breast infiltrating ductal adenocarcinoma origin: 12 decreased, 16 not affected",42%
same,tumors affected (proliferation decreased),"[14]; remaining tumors not of uterine adenocarcinoma origin: 11 decreased, 16 not affected",40.7%
same,tumors affected (proliferation decreased),"[14]; remaining tumors not of uterine or breast adenocarcinoma origin: 7 decreased, 14 not affected",33.3%
same,tumors with decreased proliferation,"[14]; remaining tumors not of uterine, ovarian or breast adenocarcinoma origin: 5 decreased, 13 not affected",27.8%
